Test results reported in paper PMC10447463, “Data-mining unveils structure–property–activity correlation of viral infectivity enhancing self-assembling peptides” (Nature Communications, 2023).
Like-named read-outs stand apart in the source and are kept apart here.

How the values were obtained:
[1] = Zeta-potential measurement; format: physicochemical; conditions: for Zeta pot. / mV: 1 mg/mL in PBS pH 7.4 from 10 mg/mL DMSO stock, 1 d RT, 60 µL diluted in 600 µL 1 mM KCl, Zetasizer Nano ZS, Smoluchowski, mean of triplicate
In short: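 Peptides from a 10 mg/mL DMSO stock were brought to 1 mg/mL in PBS (pH 7.4) and aged 1 d at RT. Just before reading, they were diluted into 1 mM aqueous KCl, and zeta potential was calculated from electrophoretic mobility with the Smoluchowski formula.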

[2] = system: HIV-1 infection of TZM-bl cells; assay: HIV-1 infectivity enhancement assay, β-galactosidase luminescence; format: cell-based; conditions: for Rel-EFC: infection relative to EF-C (QCKIKQIINMWQ = 1); for Log10 Infection Rel EFC: log10 of infection relative to EF-C; for Log Infectivity: Fig. S7 panel A (plotted against β-sheet content), Log10 infection relative to EF-C, asymmetric std dev errors; for Log10 Infection Rel EF-C: HIV-1 infection of TZM-bl cells; for Abs. Inf. / RLU s-1: absolute infection rate, peptide 1.3 µM on cells, virus preincubated 10 min with fibrils, read 3 days post infection, mean of triplicate; for Log10 of Rel to EFC (Feb2021): Log10 of infection relative to EF-C, all peptides of FigS16; for Abs. Inf.: β-galactosidase luminescence
[3] = Turbidity, derived count rate of scattered light; format: physicochemical; conditions: for Count Rate / kcps: derived count rate of scattered light at 633 nm, 173°, from zeta-potential measurement, 0.1 mg/mL in 1 mM KCl after 1 d at 1 mg/mL in PBS, turbidity / microscopic aggregation, mean of triplicate
In short: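 Samples: 1 mg/mL in PBS pH 7.4 (from DMSO), 1 d at RT, then diluted in 1 mM KCl immediately before measurement. Triplicates, two independent runs averaged.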

[4] = β-sheet content by ATR-FT-IR; format: physicochemical; conditions: for ß-sheet / %: ATR-FT-IR of lyophilised 1 mg/mL PNF solution, peak integral ratio 1625-1635 cm-1, measured once; for b -sheet / %: Fig. S7 panel A, β-sheet content by ATR-FT-IR
Description: For ATR FT–IR spectroscopy measurements, 200 µL of the respective 1 mg/mL PNF solution was lyophilized and the resulting powder used for measurement. All spectra were recorded on a Bruker Tensor 27 spectrometer with a diamond crystal as ATR element (PIKE MiracleTM, spectral resolution 2 cm^-1). Every sample was measured with 64 scans. Data were analyzed with OriginLab software and calculation of β–sheet content was conducted according to a previous report. TEM. For TEM measurements 5 µL of PNF fibrils (1 mg/mL) were placed on copper grids coated with carbon and formvar layer (300 mesh, Plano GmbH). After 10 min incubation time, the grids were staining with 4% uranyl acetate solution for 2.5 min and washed with water. Measurements were performed on a Jeol 1400 electron microscope with 120 kV acceleration voltage. CR Assay. For the determination of the amount of peptide monomer converting into nanostructures the amine reactive dye fluorescamine was used analogous to a previous reported protocol. Briefly, 100 µL of the preformed PNF solution was centrifuged in a Vivaspin 500 tube (3 kDa MWCO) to separate fibers from free peptide monomer (16200 x g, 4 °C, 45 min). The filtrate and 100 μL of the non-filtered PNF sample were lyophilized and dissolved in 30 μL DMSO. 10 μL of the filtrate and non-filtered DMSO samples were submitted in a black UV Star® 384 microliter well–plates (Greiner bio–one) and 3 μL of the fluorescamine solution (10 mg/mL, DMSO) was added to measure the fluorescence enhancement. After 20 min of incubation at RT, fluorescence was recorded on an Infinite® M1000 PRO microplate reader (Tecan) at λem = 470 nm upon excitation at λex = 365 nm with 10 nm bandwidths and multiple reads per well (3×3). Measurements were repeated in triplicates and averaged with standard deviation. All values were calculated as n-fold fluorescence enhancement (DMSO only as a reference was set to 1). The conversion rate CR was defined according to the equation Eq. (3).3 CR=100−100×fluorescenceintensityfiltrate/fluorescenceintensityoriginal[%]

[5] = zeta potential of peptide assemblies
[6] = zeta-potential of peptide, source data of Figure 2C
[7] = zeta-potential of the peptide assemblies, mean, Figure 3A source data
[8] = Log10 of infection rate relative to EF-C, Figure 3A source data
[9] = infection rate relative to EF-C, log10, data of Figure 2D
[10] = infection rate relative to EF-C, log10, source data of Figure 2C
[11] = HIV-1 infection relative to EF-C, Fig 23 plot, panels A and B, mean of 3 values
[12] = HIV-1 infection relative to EF-C, Fig 23 plot, single data point, replicate 2
[13] = HIV-1 infection relative to EF-C, Fig 23 plot, single data point, replicate 3
[14] = n-fold infection vs virus only, relative to that of EF-C, 1.3 µM peptide
[15] = Log10 of derived count rate of scattered light (turbidity)
[16] = log10 of derived count rate of scattered light (turbidity)
[17] = logarithm of count rate in kcps
[18] = turbidity, Log10 of derived count rate of scattered light, Figure 3A source data
[19] = absolute HIV-1 infection signal, TZM-bl cells

Row | Substance | Zeta-Pot. [1, 5] | Zeta-Potential / mV [1, 6] | Zeta-Potential / mV [1, 7] | Rel-EFC ([2]; 1.3 µM peptide) | Log10 Infection Rel EFC ([2]; 1.3 µM peptide) | Log Infectivity ([2]; TZM-bl cells) | Log10 Infection Rel EF-C [2, 8] | Log10 Infection Rel EF-C [2, 9] | Log10 Infection Rel EF-C [2, 10] | Log10 Count Rate [3, 15] | Count Rate / kcps [3] | Log10 Count Rate [3, 16] | Log10 Count Rate [3, 18] | b -sheet / % [4] | Log10 of Rel to EFC (Feb2021) [2] | Zeta-Pot. [1] | also measured
1 | KAKAQANM | -2.62 | -2.065 mV | -2.62 mV | 0,01 | -2,05 | -2.046 | -2.05 | -2.046 | -2.046 | 1.628 | 43 kcps | 1.628 | 1.628 | 32.8491% |  |  | Zeta pot. / mV [1]: -2.6 mV; Inf. rel. EF-C [2, 11]: 0.02204; Inf. rel. EF-C ([2]; HIV-1 infection relative to EF-C, Fig 23 plot, single data point, replicate 1): 0.03965; Inf. rel. EF-C [2, 12]: 0.008224; Inf. rel. EF-C [2, 13]: 0.01824; Abs. Inf. / RLU s-1 [2]: 497 RLU s-1; Inf. rel. EF-C [2, 14]: 0.01; Log10 Count Rate [3, 17]: 1.6; ß-sheet / % [4]: 33%
2 | KFKFEFEF | -2.55 | -2.87 mV | -2.55 mV | 0,03 | -1,55 | -1.547 | -1.55 | -1.547 | -1.547 | 3.34 | 2186 kcps | 3.34 | 3.34 | 40.95% |  |  | 
3 | KFKFQFF | 6.903 | 6.903 mV | 6.9 mV | 0,12 | -0,91 | -0.9142 | -0.91 | -0.9142 | -0.9142 | 1.577 | 38 kcps | 1.577 | 1.577 | 48.35% | -0.91 |  | Abs. Infection at 0.26 µM ([2]; peptide 0.26 µM, mean of n = 3, Figure 4A): 476.7; Infect 1 0.26 µM ([2]; peptide 0.26 µM, replicate 1, absolute infection signal, Figure 4A): 343.33; Infect 2 0.26 µM ([2]; peptide 0.26 µM, replicate 2, absolute infection signal, Figure 4A): 603.33; Infect 3 0.26 µM ([2]; peptide 0.26 µM, replicate 3, absolute infection signal, Figure 4A): 483.33; Abs. Infection at 1.3 µM ([2]; peptide 1.3 µM, mean of n = 3, Figure 4A): 2850; Infect 1 .3 µM ([2]; peptide 1.3 µM, replicate 1, absolute infection signal, Figure 4A): 3623.33; Infect 2 1.3µM ([2]; peptide 1.3 µM, replicate 2, absolute infection signal, Figure 4A): 2253.33; Infect 3 1.3 µM ([2]; peptide 1.3 µM, replicate 3, absolute infection signal, Figure 4A): 2673.33
4 | KFKFQFN |  | 10.12 mV | 12.7 mV | 0,02 | -1,74 | -1.744 | -1.74 | -1.744 | -1.744 | 1.705 | 51 kcps |  | 1.705 | 38.13% |  | 12.7 | Zeta pot. / mV [1]: 12.7 mV; Inf. rel. EF-C [2, 11]: 0.01184; Inf. rel. EF-C [2, 12]: 0.01096; Inf. rel. EF-C [2, 13]: 0.005798; Abs. Inf. / RLU s-1 [2]: 270 RLU s-1; Abs. Inf. ([2]; absolute infection signal, HIV-1 on TZM-bl cells): 270; Log10 Inf. rel. to EF-C ([2]; log10 of HIV-1 infection of TZM-bl cells relative to EF-C (EF-C = 0)): -1.744; Inf. rel. EF-C [2, 14]: 0.02; Log10 Count Rate [3, 17]: 1.7; Log10 Count Rate ([3]; turbidity, log10 of derived count rate of scattered light): 1.705; ß-sheet / % [4]: 38%
5 | KFKFQFW |  | 8.995 mV | 6.49 mV | 0,16 | -0,79 | -0.7899 | -0.79 | -0.7899 | -0.7899 | 2.086 | 122 kcps | 2.086 | 2.086 | 35.45% | -0.79 | 6.49 | Abs. Inf. [2, 19]: 4953
6 | KFKQFFINMWQ |  | 10.28 mV | 7.99 mV | 0,92 | -0,04 | -0.03603 | -0.04 | -0.03603 | -0.03603 | 3.954 | 8996 kcps | 3.954 | 3.954 | 38.37% | -0.04 | 7.99 | Abs. Inf. [2, 19]: 14953.33333
7 | KIEIQINM | -0.35 | -6.992 mV | -0.35 mV | 0,03 | -1,46 | -1.458 | -1.46 | -1.458 | -1.458 | 2.439 | 275 kcps | 2.439 | 2.439 | 42.99% |  |  | 
